Source: US20260325533A1, “CDK INHIBITOR COMPOUNDS” (ALEKSIA THERAPEUTICS, INC., priority 2023, published 2026)
Where two headings read alike, the source gives them in different places.

Experiments:
Format in all cases: biochemical
CDK6/CCND1 = CDK6/CCND1 (Homo sapiens, UniProt Q00534); assay: CDK6 homogeneous time-resolved fluorescence (HTRF) kinase assay; conditions: CDK6/CCND
How it was run: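 Recombinant CDK6/CCND1 (1 nM final) was preincubated with compound for 20 min at 23 °C in HEPES buffer with MgCl2, EGTA, DTT and Tween 20. Kinase reaction then ran 60 min at 23 °C with 1 mM ATP and 50 nM ULight-4E-BP1 (Thr37/46) peptide, and was stopped with EDTA.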

CDK1/CCNB1 = CDK1/CCNB1 (Homo sapiens, UniProt P06493); assay: CDK1 homogeneous time-resolved fluorescence (HTRF) kinase assay; conditions: CDK1/CCNB
How it was run: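 CDK1/CCNB1 0.5 nM + cpd, 20 min 23 °C; add 1 mM ATP, 50 nM ULight-4E-BP1 peptide, 60 min 23 °C; stop 10 mM EDTA; 2 nM Eu-Ab, 60 min; HTRF 665 nm. 11-pt half-log, top 10 μM typical; IC50.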

CDK4/CCND3 = CDK4/CCND3 (Homo sapiens, UniProt P11802); assay: CDK4 homogeneous time-resolved fluorescence (HTRF) kinase assay; conditions: CDK4/CCND
How it was run: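 HTRF kinase assay, CDK4/CCND3 1.5 nM, ATP 1 mM, ULight-4E-BP1 peptide 50 nM, 23 °C, 60 min reaction after 20 min preincubation. Eu-anti-pThr37/46 antibody detection. 11-pt half-log curves from 10 μM → IC50.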

CDK2/CCNE1 = CDK2/CCNE1 (Homo sapiens, UniProt P24941); assay: CDK2 homogeneous time-resolved fluorescence (HTRF) kinase assay; conditions: CDK2/CCNE
How it was run: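 An HTRF format measures CDK2/CCNE1 (3 nM) phosphorylating a 4E-BP1 Thr37/46 peptide at high (1 mM) ATP. Reactions run one hour at 23 °C, then EDTA-quenched and probed with Eu-labelled phospho-specific antibody.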

[1] = 25-250 nM marked x, read-out: CDK4/CCND IC50 25-250 nM
[2] = <25 nM, read-out: CDK2/CCNE IC50 <25 nM
[3] = x = IC50 >250 nM, read-out: CDK6/CCND IC50 (>250 nM column)
[4] = x = IC50 >250 nM, read-out: CDK1/CCNB IC50 (>250 nM column)
[5] = x = IC50 >250 nM, read-out: CDK4/CCND IC50 (>250 nM column)
[6] = x = IC50 25-250 nM, read-out: CDK2/CCNE IC50 (25-250 nM)
[7] = >250 nM, 1 mM ATP, read-out: CDK6/CCND IC50, >250 nM
[8] = >250 nM, read-out: CDK1/CCNB IC50 >250 nM
[9] = >250 nM, read-out: CDK4/CCND IC50, >250 nM
[10] = 25-250 nM, read-out: CDK2/CCNE IC50, 25-250 nM
[11] = <25 nM, read-out: CDK2/CCNE IC50, <25 nM
[12] = >250 nM marked x, read-out: CDK6/CCND IC50 >250 nM
[13] = >250 nM marked x, read-out: CDK1/CCNB IC50 >250 nM
[14] = x = IC50 25-250 nM, read-out: CDK1/CCNB IC50 (25-250 nM)
[15] = x = IC50 25-250 nM, read-out: CDK4/CCND IC50 (25-250 nM)
[16] = x = IC50 <25 nM, read-out: CDK2/CCNE IC50 (<25 nM)

CDK4/CCND3, sequence (P11802 whole entry): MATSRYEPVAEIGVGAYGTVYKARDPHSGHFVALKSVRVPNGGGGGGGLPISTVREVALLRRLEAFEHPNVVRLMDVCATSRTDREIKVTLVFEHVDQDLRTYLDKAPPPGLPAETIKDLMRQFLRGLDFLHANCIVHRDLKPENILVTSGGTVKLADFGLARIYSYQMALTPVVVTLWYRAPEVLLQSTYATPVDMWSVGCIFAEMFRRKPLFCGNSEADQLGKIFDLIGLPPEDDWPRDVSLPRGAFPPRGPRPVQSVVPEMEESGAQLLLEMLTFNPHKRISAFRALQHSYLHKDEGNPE
CDK4/CCND3, sequence (P30281 whole entry partner): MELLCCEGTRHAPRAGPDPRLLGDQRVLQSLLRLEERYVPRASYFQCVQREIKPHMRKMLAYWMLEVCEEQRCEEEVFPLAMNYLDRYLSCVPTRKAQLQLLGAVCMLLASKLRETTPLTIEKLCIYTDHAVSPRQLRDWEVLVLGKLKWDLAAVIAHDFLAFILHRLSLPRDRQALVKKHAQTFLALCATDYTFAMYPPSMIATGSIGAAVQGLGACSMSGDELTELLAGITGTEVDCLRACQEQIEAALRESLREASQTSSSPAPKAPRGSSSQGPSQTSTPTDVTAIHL
CDK6/CCND1, sequence (Q00534 whole entry): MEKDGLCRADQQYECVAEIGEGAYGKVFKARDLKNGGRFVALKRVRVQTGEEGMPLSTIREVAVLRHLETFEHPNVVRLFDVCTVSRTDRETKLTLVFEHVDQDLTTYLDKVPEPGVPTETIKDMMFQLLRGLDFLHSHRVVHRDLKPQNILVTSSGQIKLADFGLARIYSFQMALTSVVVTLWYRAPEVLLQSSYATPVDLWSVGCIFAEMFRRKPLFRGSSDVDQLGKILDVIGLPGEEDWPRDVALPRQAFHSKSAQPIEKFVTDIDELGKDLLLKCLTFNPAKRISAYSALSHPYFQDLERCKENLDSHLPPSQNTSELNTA
CDK6/CCND1, sequence (P24385 whole entry partner): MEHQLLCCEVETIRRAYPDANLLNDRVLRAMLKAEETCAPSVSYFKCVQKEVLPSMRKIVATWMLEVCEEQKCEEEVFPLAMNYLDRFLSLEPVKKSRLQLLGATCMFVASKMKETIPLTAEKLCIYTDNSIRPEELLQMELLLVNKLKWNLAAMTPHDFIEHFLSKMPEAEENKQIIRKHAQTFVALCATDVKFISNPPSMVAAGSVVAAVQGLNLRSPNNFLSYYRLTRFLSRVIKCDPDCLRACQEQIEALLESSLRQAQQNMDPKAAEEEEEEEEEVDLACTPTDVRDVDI
CDK1/CCNB1, sequence (P06493 whole entry): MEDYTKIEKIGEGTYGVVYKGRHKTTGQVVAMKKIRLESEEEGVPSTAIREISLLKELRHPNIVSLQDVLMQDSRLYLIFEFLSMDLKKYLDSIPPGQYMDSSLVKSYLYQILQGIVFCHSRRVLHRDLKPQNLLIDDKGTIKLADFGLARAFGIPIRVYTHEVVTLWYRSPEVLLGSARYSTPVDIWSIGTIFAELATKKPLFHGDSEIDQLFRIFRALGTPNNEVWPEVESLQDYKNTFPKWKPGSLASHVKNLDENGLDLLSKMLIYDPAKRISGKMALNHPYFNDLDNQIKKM
CDK1/CCNB1, sequence (P14635 whole entry partner): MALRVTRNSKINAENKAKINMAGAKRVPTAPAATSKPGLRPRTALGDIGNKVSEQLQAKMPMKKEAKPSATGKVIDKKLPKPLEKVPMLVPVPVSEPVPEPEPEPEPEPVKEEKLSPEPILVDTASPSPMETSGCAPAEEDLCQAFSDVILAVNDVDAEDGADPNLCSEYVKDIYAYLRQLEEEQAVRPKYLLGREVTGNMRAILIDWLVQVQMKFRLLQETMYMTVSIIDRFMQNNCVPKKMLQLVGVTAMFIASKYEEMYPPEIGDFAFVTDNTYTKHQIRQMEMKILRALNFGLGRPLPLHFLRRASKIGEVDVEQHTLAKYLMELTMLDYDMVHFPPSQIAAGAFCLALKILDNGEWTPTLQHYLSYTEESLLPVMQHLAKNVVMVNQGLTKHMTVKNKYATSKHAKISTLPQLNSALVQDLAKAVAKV

For `C=CS(=O)(=O)N1CCC(Nc2cc3c(N4CCC(C#N)CC4)nccc3cn2)CC1` [Ex 106, 1-(7-((1-(vinylsulfonyl)piperidin-4-yl)amino)-2,6-naphthyridin-1-yl)piperidine-4-carbonitrile], the IC50 (CDK6/CCND1; 25-250 nM marked x, read-out: CDK6/CCND IC50 25-250 nM) was 25 to 250 nM, the IC50 (CDK1/CCNB1; 25-250 nM marked x, read-out: CDK1/CCNB IC50 25-250 nM) was 25 to 250 nM and the IC50 (CDK4/CCND3; [1]) was 25 to 250 nM. For the same compound, the IC50 (CDK2/CCNE1; [2]) was less than 25 nM.
`CS(=O)(=O)c1ccc(Nc2cc3c(C#Cc4ccc(C5CC5)nc4)nccc3cn2)cc1` [Ex 517, 5-((6-cyclopropylpyridin-3-yl)ethynyl)-N-(4-(methylsulfonyl)phenyl)-2,6-naphthyridin-3-amine] was tested, and the IC50 (CDK6/CCND1; [3]) was greater than 250 nM, the IC50 (CDK1/CCNB1; [4]) was greater than 250 nM and the IC50 (CDK4/CCND3; [5]) was greater than 250 nM. For the same compound, the IC50 (CDK2/CCNE1; [6]) was 25 to 250 nM.
`Cc1c(-c2nccc3cnc(Nc4cccc(C(=O)Nc5ccccc5)c4)cc23)ccc2c1cnn2CC(C)(C)O` [Ex 929, 3-((5-(1-(2-hydroxy-2-methylpropyl)-4-methyl-1H-indazol-5-yl)-2,6-naphthyridin-3-yl)amino)-N-phenylbenzamide] gave an IC50 (CDK6/CCND1; [7]) greater than 250 nM, an IC50 (CDK1/CCNB1; [8]) greater than 250 nM and an IC50 (CDK4/CCND3; [9]) greater than 250 nM. For the same compound, the IC50 (CDK2/CCNE1; [10]) was 25 to 250 nM.
`CS(=O)(=O)c1ccc(Nc2cc3c(C#Cc4n[nH]c(=O)c5ccccc45)nccc3cn2)cc1` [Example 495, 4-((7-((4-(methylsulfonyl)phenyl)amino)-2,6-naphthyridin-1-yl)ethynyl) phthalazin-1(2H)-one] was tested, and the IC50 (CDK6/CCND1; [3]) was greater than 250 nM, the IC50 (CDK1/CCNB1; [4]) was greater than 250 nM and the IC50 (CDK4/CCND3; [5]) was greater than 250 nM. For the same compound, the IC50 (CDK2/CCNE1; [6]) was 25 to 250 nM.
`Cn1cc(C2CCN(c3nccc4cnc(Nc5ccc(S(C)(=O)=O)cc5)cc34)C2)cn1` (racemic) [Ex 654, 5-(3-(1-methyl-1H-pyrazol-4-yl)pyrrolidin-1-yl)-N-(4-(methylsulfonyl)phenyl)-2,6-naphthyridin-3-amine] was tested, and the IC50 (CDK6/CCND1; [3]) was greater than 250 nM, the IC50 (CDK1/CCNB1; [4]) was greater than 250 nM and the IC50 (CDK4/CCND3; [5]) was greater than 250 nM. For the same compound, the IC50 (CDK2/CCNE1; x = IC50 >250 nM, read-out: CDK2/CCNE IC50 (>250 nM column)) was greater than 250 nM.
For `CS(=O)(=O)c1ccc(Nc2cc3c(C#Cc4ccc5c(O)ncnc5c4)nccc3cn2)cc1` [Ex 861, 7-((7-((4-(methylsulfonyl)phenyl)amino)-2,6-naphthyridin-1-yl)ethynyl)quinazolin-4-ol], the IC50 (CDK6/CCND1; [7]) was greater than 250 nM, the IC50 (CDK1/CCNB1; [8]) was greater than 250 nM and the IC50 (CDK4/CCND3; [9]) was greater than 250 nM. The IC50 (CDK2/CCNE1; [10]) was 25 to 250 nM.
In the case of `Cc1c(-c2nccc3cnc(Nc4ccc(S(=O)(=O)Nc5ccccn5)cc4)cc23)ccc2c1cnn2CC(O)(C(F)(F)F)C(F)(F)F` [Example 716, 4-((5-(4-methyl-1-(3,3,3-trifluoro-2-hydroxy-2-(trifluoromethyl)propyl)-1H-indazol-5-yl)-2,6-naphthyridin-3-yl)amino)-N-(pyridin-2-yl)benzenesulfonamide], the IC50 (CDK6/CCND1; [7]) is reported as greater than 250 nM, the IC50 (CDK1/CCNB1; [8]) is reported as greater than 250 nM and the IC50 (CDK4/CCND3; [9]) is reported as greater than 250 nM. It also gave an IC50 (CDK2/CCNE1; [11]) of less than 25 nM.
For `Cc1c(-c2nccc3cnc(Nc4ccc(S(=O)(=O)NC5CCN(CCO)CC5)cc4)cc23)ccc2c1cnn2CC(C)(C)O` [Ex 762, 4-((5-(1-(2-hydroxy-2-methylpropyl)-4-methyl-1H-indazol-5-yl)-2,6-naphthyridin-3-yl)amino)-N-(1-(2-hydroxyethyl)piperidin-4-yl)benzenesulfonamide], the IC50 (CDK6/CCND1; 25-250 nM, 1 mM ATP, read-out: CDK6/CCND IC50, 25-250 nM) was 25 to 250 nM, the IC50 (CDK1/CCNB1; 25-250 nM, read-out: CDK1/CCNB IC50, 25-250 nM) was 25 to 250 nM and the IC50 (CDK4/CCND3; 25-250 nM, read-out: CDK4/CCND IC50, 25-250 nM) was 25 to 250 nM. For the same compound, the IC50 (CDK2/CCNE1; [11]) was less than 25 nM.
Compound `Cc1c(-c2nccc3cnc(Nc4ccc(S(=O)(=O)NCc5ccccc5)cc4)cc23)ccc2c1cnn2CC(O)(C(F)(F)F)C(F)(F)F` [Ex 729, N-benzyl-4-((5-(4-methyl-1-(3,3,3-trifluoro-2-hydroxy-2-(trifluoromethyl)propyl)-1H-indazol-5-yl)-2,6-naphthyridin-3-yl)amino)benzenesulfonamide] has an IC50 (CDK6/CCND1; [7]) greater than 250 nM, an IC50 (CDK1/CCNB1; [8]) greater than 250 nM and an IC50 (CDK4/CCND3; [9]) greater than 250 nM. The IC50 (CDK2/CCNE1; [10]) was 25 to 250 nM.
In the case of `Cc1c(-c2nccc3cnc(NC4CCN(C(=O)c5ccc(Cl)cc5)C4)cc23)ccc2c1cnn2CC(C)(C)O` (racemic) [Ex 903, (4-chlorophenyl)(3-((5-(1-(2-hydroxy-2-methylpropyl)-4-methyl-1H-indazol-5-yl)-2,6-naphthyridin-3-yl)amino)pyrrolidin-1-yl)methanone], the IC50 (CDK6/CCND1; [7]) is reported as greater than 250 nM, the IC50 (CDK1/CCNB1; [8]) is reported as greater than 250 nM and the IC50 (CDK4/CCND3; [9]) is reported as greater than 250 nM. For the same compound, the IC50 (CDK2/CCNE1; [11]) was less than 25 nM.
In the case of `Cc1c(-c2nccc3cnc(Nc4ccc(S(C)(=O)=O)cc4)cc23)ncc2[nH]ncc12` [Example 591, 5-(4-methyl-1H-pyrazolo[3,4-c]pyridin-5-yl)-N-(4-(methylsulfonyl)phenyl)-2,6-naphthyridin-3-amine], the IC50 (CDK6/CCND1; [3]) is reported as greater than 250 nM, the IC50 (CDK1/CCNB1; [4]) is reported as greater than 250 nM and the IC50 (CDK4/CCND3; [5]) is reported as greater than 250 nM. It also gave an IC50 (CDK2/CCNE1; [6]) of 25 to 250 nM.
Work on `CC#Cc1nccc2cnc(Nc3ccc(S(=O)(=O)Nc4nccc(C)n4)cc3)cc12` [Ex 905, N-(4-methylpyrimidin-2-yl)-4-((5-(prop-1-yn-1-yl)-2,6-naphthyridin-3-yl)amino)benzenesulfonamide] yielded an IC50 (CDK6/CCND1; [7]) greater than 250 nM, an IC50 (CDK1/CCNB1; [8]) greater than 250 nM and an IC50 (CDK4/CCND3; [9]) greater than 250 nM. The IC50 (CDK2/CCNE1; [10]) was 25 to 250 nM.
In the case of `Cc1c(-c2nccc3cnc(Nc4ccc(S(C)(=O)=O)cc4)cc23)ccc2c1cnn2C` [Ex 158, 5-(1,4-dimethyl-1H-indazol-5-yl)-N-(4-(methylsulfonyl)phenyl)-2,6-naphthyridin-3-amine], the IC50 (CDK6/CCND1; [12]) is reported as greater than 250 nM, the IC50 (CDK1/CCNB1; [13]) is reported as greater than 250 nM and the IC50 (CDK4/CCND3; [1]) is reported as 25 to 250 nM. It also gave an IC50 (CDK2/CCNE1; [2]) of less than 25 nM.
`COc1ccc(CN2CCC(c3nccc4cnc(Nc5ccc(S(C)(=O)=O)cc5)cc34)C2)cc1` (racemic) [Ex 231, 5-(1-(4-methoxybenzyl)pyrrolidin-3-yl)-N-(4-(methylsulfonyl)phenyl)-2,6-naphthyridin-3-amine] gave an IC50 (CDK6/CCND1; [12]) greater than 250 nM, an IC50 (CDK1/CCNB1; [13]) greater than 250 nM and an IC50 (CDK4/CCND3; >250 nM marked x, read-out: CDK4/CCND IC50 >250 nM) greater than 250 nM. For the same compound, the IC50 (CDK2/CCNE1; >250 nM marked x, read-out: CDK2/CCNE IC50 >250 nM) was greater than 250 nM.
`CS(=O)(=O)c1ccc(Nc2cc3c(C#Cc4ccc(C(F)(F)F)cc4N)nccc3cn2)cc1` [Ex 563, 5-((2-amino-4-(trifluoromethyl)phenyl)ethynyl)-N-(4-(methylsulfonyl)phenyl)-2,6-naphthyridin-3-amine] was tested, and the IC50 (CDK6/CCND1; [3]) was greater than 250 nM, the IC50 (CDK1/CCNB1; [4]) was greater than 250 nM and the IC50 (CDK4/CCND3; [5]) was greater than 250 nM. For the same compound, the IC50 (CDK2/CCNE1; [6]) was 25 to 250 nM.
In the case of `CS(=N)(=O)c1ccc(Nc2cc3c(C#Cc4ccc5oc(=O)[nH]c5c4)nccc3cn2)cc1` (racemic) [Ex 491, 5-((7-((4-(S-methylsulfonimidoyl)phenyl)amino)-2,6-naphthyridin-1-yl)ethynyl)benzo[d]oxazol-2(3H)-one], the IC50 (CDK6/CCND1; x = IC50 25-250 nM, read-out: CDK6/CCND IC50 (25-250 nM)) is reported as 25 to 250 nM, the IC50 (CDK6/CCND1; [3]) is reported as greater than 250 nM and the IC50 (CDK1/CCNB1; [14]) is reported as 25 to 250 nM. It also gave an IC50 (CDK4/CCND3; [15]) of 25 to 250 nM and an IC50 (CDK2/CCNE1; [16]) of less than 25 nM.
Work on `CC(C)S(=N)(=O)c1ccc(Nc2cc3c(C#Cc4cc5c(cc4N)C(C)(C)C(=O)N5)nccc3cn2)cc1` (single isomer, unassigned) [Ex 349, 5-amino-3,3-dimethyl-6-((7-((4-(propan-2-ylsulfonimidoyl)phenyl)amino)-2,6-naphthyridin-1-yl)ethynyl)indolin-2-one] yielded an IC50 (CDK6/CCND1; [3]) greater than 250 nM, an IC50 (CDK1/CCNB1; [14]) of 25 to 250 nM and an IC50 (CDK4/CCND3; [15]) of 25 to 250 nM. The IC50 (CDK2/CCNE1; [16]) was less than 25 nM.
